pKd: −log10 of the molar value.

Results on two molecules are retold here after paper PMC7759012 (Biochemistry, 2020).

What all share (type): binding
In test [1] the target is BirA (E. coli biotin protein ligase; BirA wt) (Escherichia coli, UniProt P06709). The test is described as follows: ITC, TAPS, proton linkage. The following applies: pH 6.0; 10 mM Bistris, citrate or MES with 200 mM KCl, 2.5 mM MgCl2.
The target of test [2] is BirA (E. coli biotin protein ligase; BirA wt) (Escherichia coli, UniProt P06709, R118A). The test is described as follows: ITC, direct titration, single-site model.
In test [3] the target is BirA (E. coli biotin protein ligase; BirA wt) (Escherichia coli, UniProt P06709, E313A). The test is described as follows: ITC, direct titration, single-site model. A general note: Isothermal titration calorimetry measures the heat released or taken up as one component is titrated into another.
Test [4] addresses BirA (E. coli biotin protein ligase; BirA wt) (Escherichia coli, UniProt P06709, K183A). The test is described as follows: ITC, direct titration, single-site model.

As for `Nc1ncnc2c1ncn2[C@@H]1O[C@H](COP(=O)(O)OCCCCC[C@@H]2SC[C@@H]3NC(=O)N[C@@H]32)[C@@H](O)[C@H]1O` [btnOH-AMP], the “ITC, TAPS, proton linkage (enthalpy only)” value in test [1] is “btnOH-AMP binding to BirA^wt is linked to proton release”.

With `Nc1ncnc2c1ncn2[C@@H]1O[C@H](COP(=O)(O)OC(=O)CCCC[C@@H]2SC[C@@H]3NC(=O)N[C@@H]32)[C@@H](O)[C@H]1O` [bio-5'-AMP], the figures for the pKd in test [2], in test [3] and in test [4] were 8.89, 8.00 and 7.66, respectively.

By pKd is commonly meant the Kd on a negative log10 scale, so that one unit is a factor of ten.
